In brackets after ≈: the same amount, converted by molar mass.
How the values were obtained:
Format in all cases: functional
[1] = test system: Mycobacterium tuberculosis; experiment: Antimycobacterial activity against Mycobacterium tuberculosis overexpressing DprE1 assessed as growth inhibition by resazurin assay
[2] = test system: Mycobacterium tuberculosis; experiment: Antimycobacterial activity against 3-cyclopropyl-1-phenyl-5-((3-(trifluoromethyl)benzylamino)-methyl)-1H-pyrazolo[3,4-b]pyridin-6(7H)-one-resistant Mycobacterium tuberculosis clone 8.3 assessed as growth inhibition by resazurin assay; conditions: clone 8.3, 7 h
[3] = test system: Mycobacterium tuberculosis; experiment: Antimycobacterial activity against 3-cyclopropyl-1-phenyl-5-((3-(trifluoromethyl)benzylamino)-methyl)-1H-pyrazolo[3,4-b]pyridin-6(7H)-one-resistant Mycobacterium tuberculosis clone 8.2 assessed as growth inhibition by resazurin assay; conditions: clone 8.2, 7 h
[4] = test system: Mycobacterium tuberculosis; experiment: Antimycobacterial activity against BTZ043-resistant Mycobacterium tuberculosis harboring DprE1 C-G mutant assessed as growth inhibition by resazurin assay
[5] = test system: Mycobacterium tuberculosis; experiment: Antimycobacterial activity against BTZ043-resistant Mycobacterium tuberculosis harboring DprE1 C-S mutant assessed as growth inhibition by resazurin assay
[6] = test system: Mycobacterium tuberculosis; experiment: Antimycobacterial activity against 3-cyclopropyl-1-phenyl-5-((3-(trifluoromethyl)benzylamino)-methyl)-1H-pyrazolo[3,4-b]pyridin-6(7H)-one-resistant Mycobacterium tuberculosis clone 8.1 assessed as growth inhibition by resazurin assay; conditions: clone 8.1, 7 h
[7] = test system: Mycobacterium tuberculosis; experiment: Antimycobacterial activity against isoniazid-resistant Mycobacterium tuberculosis 912253 assessed as growth inhibition after 2 to 3 weeks by turbidometry
[8] = test system: Mycobacterium tuberculosis; experiment: Antimycobacterial activity against rifampin-resistant Mycobacterium tuberculosis 19000 assessed as growth inhibition after 2 to 3 weeks by turbidometry
[9] = test system: Mycobacterium tuberculosis; experiment: Antimycobacterial activity against ofloxacin-resistant Mycobacterium tuberculosis 12119 assessed as growth inhibition after 2 to 3 weeks by turbidometry
[10] = test system: Mycobacterium tuberculosis; experiment: Antimycobacterial activity against ethambutol-resistant Mycobacterium tuberculosis 17003 assessed as growth inhibition after 2 to 3 weeks by turbidometry
[11] = test system: Mycobacterium tuberculosis; experiment: Antimycobacterial activity against streptomycin-resistant Mycobacterium tuberculosis 136570 assessed as growth inhibition after 2 to 3 weeks by turbidometry

SMILES	MIC [1] [µM]	MIC [2] [µM]	MIC [3] [µM]	MIC [4] [µM]	MIC [5] [µM]	MIC [6] [µM]	MIC [7] [µM]	MIC [8] [µM]	MIC [9] [µM]	MIC [10] [µM]	MIC [11] [µM]
O=c1[nH]c2c(cc1CNCc1cccc(C(F)(F)F)n1)c(C1CC1)nn2-c1ccccc1	50 (≈ 22 µg/mL)	0.2 (≈ 0.0879 µg/mL)	> 100	100 (≈ 43.9 µg/mL)	100 (≈ 43.9 µg/mL)	1.2 (≈ 0.527 µg/mL)					
CO[C@H]1/C=C/O[C@@]2(C)Oc3c(C)c(O)c4c(O)c(c(/C=N/N5CCN(C)CC5)c(O)c4c3C2=O)NC(=O)/C(C)=C\C=C\[C@H](C)[C@H](O)[C@@H](C)[C@@H](O)[C@@H](C)[C@H](OC(C)=O)[C@@H]1C [RIFAMPIN]							0.02 (≈ 0.0165 µg/mL)	> 5	0.02 (≈ 0.0165 µg/mL)	0.02 (≈ 0.0165 µg/mL)	0.02 (≈ 0.0165 µg/mL)
C[C@H]1COC2(CCN(c3nc(=O)c4cc(C(F)(F)F)cc([N+](=O)[O-])c4s3)CC2)O1 [BTZ-043]	> 100	12.5 (≈ 5.39 µg/mL)	100 (≈ 43.1 µg/mL)	0.6 (≈ 0.259 µg/mL)	0.3 (≈ 0.129 µg/mL)	> 100					
O=c1[nH]c2c(cc1CNCc1cccc(C(F)(F)F)c1)c(C1CC1)nn2-c1ccccc1	0.6 (≈ 0.263 µg/mL)	0.2 (≈ 0.0877 µg/mL)	0.1 (≈ 0.0438 µg/mL)	50 (≈ 21.9 µg/mL)	>100	50 (≈ 21.9 µg/mL)	3.1 (≈ 1.36 µg/mL)	1.6 (≈ 0.702 µg/mL)	1.6 (≈ 0.702 µg/mL)	1.6 (≈ 0.702 µg/mL)	1.6 (≈ 0.702 µg/mL)
Cc1nn(-c2ccccc2)c2[nH]c(=O)c(CNCc3cccc(C(F)(F)F)c3)cc12	2.5 (≈ 1.03 µg/mL)	0.2 (≈ 0.0825 µg/mL)	100 (≈ 41.2 µg/mL)	0.3 (≈ 0.124 µg/mL)	100 (≈ 41.2 µg/mL)	> 100	6.2 (≈ 2.56 µg/mL)	3.1 (≈ 1.28 µg/mL)	1.6 (≈ 0.66 µg/mL)	3.1 (≈ 1.28 µg/mL)	3.1 (≈ 1.28 µg/mL)
O=c1[nH]c2c(cc1CNCc1cc(C(F)(F)F)ccc1F)c(C1CC1)nn2-c1ccccc1	100 (≈ 45.6 µg/mL)	0.2 (≈ 0.0913 µg/mL)	0.08 (≈ 0.0365 µg/mL)	25 (≈ 11.4 µg/mL)	1.2 (≈ 0.548 µg/mL)	100 (≈ 45.6 µg/mL)					
CN[C@@H]1[C@H](O[C@H]2[C@H](O[C@H]3[C@H](O)[C@@H](O)[C@H](N=C(N)N)[C@@H](O)[C@@H]3N=C(N)N)O[C@@H](C)[C@]2(O)C=O)O[C@@H](CO)[C@H](O)[C@H]1O [STREPTOMYCIN]							0.3 (≈ 0.174 µg/mL)	0.3 (≈ 0.174 µg/mL)	0.3 (≈ 0.174 µg/mL)	0.3 (≈ 0.174 µg/mL)	> 5
Cc1ccc(C(F)(F)F)cc1CNCc1cc2c(C3CC3)nn(-c3ccccc3)c2[nH]c1=O	1.2 (≈ 0.543 µg/mL)	0.2 (≈ 0.0905 µg/mL)	> 100	>100	0.3 (≈ 0.136 µg/mL)	0.3 (≈ 0.136 µg/mL)					
NNC(=O)c1ccncc1 [ISONIAZID]	100 (≈ 13.7 µg/mL)	0.2 (≈ 0.0274 µg/mL)	> 100	0.3 (≈ 0.0411 µg/mL)	0.1 (≈ 0.0137 µg/mL)	100 (≈ 13.7 µg/mL)	> 29	0.2 (≈ 0.0274 µg/mL)	0.2 (≈ 0.0274 µg/mL)	0.2 (≈ 0.0274 µg/mL)	0.2 (≈ 0.0274 µg/mL)
CC[C@@H](CO)NCCN[C@@H](CC)CO [ETHAMBUTOL]							2 (≈ 0.409 µg/mL)	2 (≈ 0.409 µg/mL)	2 (≈ 0.409 µg/mL)	> 20	2 (≈ 0.409 µg/mL)
O=c1[nH]c2c(cc1CNCc1cccc(C(F)(F)F)c1F)c(C1CC1)nn2-c1ccccc1	25 (≈ 11.4 µg/mL)	0.2 (≈ 0.0913 µg/mL)	0.04 (≈ 0.0183 µg/mL)	1.2 (≈ 0.548 µg/mL)	>100	0.6 (≈ 0.274 µg/mL)					
CC1COc2c(N3CCN(C)CC3)c(F)cc3c(=O)c(C(=O)O)cn1c23 (stereo not drawn) [OFLOXACIN]							0.7 (≈ 0.253 µg/mL)	0.7 (≈ 0.253 µg/mL)	> 5	0.7 (≈ 0.253 µg/mL)	0.7 (≈ 0.253 µg/mL)

Reference: ChEMBL document CHEMBL3259779, “Discovery of pyrazolopyridones as a novel class of noncovalent DprE1 inhibitor with potent anti-mycobacterial activity” (J Med Chem, 2014)
